Assay results: patent US20080058213A1, “Benzoxazole Compounds” (priority 2004, published 2008)

Key:
[1] = system: barnyard grass (Echinochloa crusgalli); assay: Weed control test for paddy field (Test Example 1): barnyard grass; format: in vivo; conditions: paddy pots, treated at 1.0 leaf stage of barnyard grass, examined after 3 weeks
Procedure, shortened: (§1)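 Paddy-soil pots flooded to 3 cm, seeded with weeds and transplanted with 2.0-leaf rice. Wettable-powder formulations diluted in water and applied dropwise at a prescribed active-ingredient dose per are at barnyard grass 1.0-leaf stage. After 3 weeks in a 25 °C glasshouse, growth inhibition versus untreated control scored 0–5 (0: <20%; 5: 100%).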

[2] = system: Monochoria (Monochoria vaginalis); assay: Weed control test for paddy field (Test Example 1): Monochoria; format: in vivo; conditions: paddy pots, treated at 1.0 leaf stage of barnyard grass, examined after 3 weeks
Procedure, shortened: as §1

[3] = system: Japanese bulrush (Scirpus juncoides); assay: Weed control test for paddy field (Test Example 1): Japanese bulrush; format: in vivo; conditions: paddy pots, treated at 1.0 leaf stage of barnyard grass, examined after 3 weeks
Procedure, shortened: as §1

[4] = system: flat sedge (Cyperus serotinus); assay: Weed control test for paddy field (Test Example 1): flat sedge; format: in vivo; conditions: paddy pots, treated at 1.0 leaf stage of barnyard grass, examined after 3 weeks
Procedure, shortened: as §1

[5] = system: rice plant; assay: Weed control test for paddy field (Test Example 1): phytotoxicity to rice plant; format: in vivo; conditions: paddy pots, treated at 1.0 leaf stage of barnyard grass, examined after 3 weeks
Procedure, shortened: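 Rice transplanted at 2.0 leaf stage into flooded paddy soil pots (3 cm water) sown with weeds. Wettable powder applied dropwise at a prescribed active ingredient dose per are at 1.0 leaf stage of barnyard grass. Kept 3 weeks in glasshouse at 25 °C. Phytotoxicity scored 0 (normal) to 5 (killed) against untreated control.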

[6] = system: southern crabgrass (Digitaria ciliaris); assay: Soil treatment test for upland field (Test Example 2): southern crabgrass; format: in vivo; conditions: soil treatment before germination, examined after 3 weeks
Procedure, shortened: (§2)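 Seeds were sown in upland field soil and covered. Next, diluted wettable-powder formulations were sprayed evenly over the surface before germination, using 15 liters of water per are. Pots then stood in a glasshouse averaging 25° C for 3 weeks before grading inhibition 0–5 relative to controls.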

[7] = system: common lambsquaters (Chenopodium album); assay: Soil treatment test for upland field (Test Example 2): common lambsquaters; format: in vivo; conditions: soil treatment before germination, examined after 3 weeks
Procedure, shortened: as §2

[8] = system: slender amaranth (Amaranthus viridis); assay: Soil treatment test for upland field (Test Example 2): slender amaranth; format: in vivo; conditions: soil treatment before germination, examined after 3 weeks
Procedure, shortened: as §2

[9] = system: common purslane (Portulaca oleracea); assay: Soil treatment test for upland field (Test Example 2): common purslane; format: in vivo; conditions: soil treatment before germination, examined after 3 weeks
Procedure, shortened: as §2

[10] = system: velvetleaf (Abutilon theophrasti); assay: Soil treatment test for upland field (Test Example 2): velvetleaf; format: in vivo; conditions: soil treatment before germination, examined after 3 weeks
Procedure, shortened: as §2

[11] = system: wheat; assay: Soil treatment test for upland field (Test Example 2): phytotoxicity to wheat; format: in vivo; conditions: soil treatment before germination, examined after 3 weeks; further: key: 0: normal growth; 1: little damaged; 2: low damaged; 3: medium damaged; 4: serious damaged; 5: complete killed
[12] = system: corn; assay: Soil treatment test for upland field (Test Example 2): phytotoxicity to corn; format: in vivo; conditions: soil treatment before germination, examined after 3 weeks; further: key: 0: normal growth; 1: little damaged; 2: low damaged; 3: medium damaged; 4: serious damaged; 5: complete killed
[13] = system: soybean; assay: Soil treatment test for upland field (Test Example 2): phytotoxicity to soybean; format: in vivo; conditions: soil treatment before germination, examined after 3 weeks; further: key: 0: normal growth; 1: little damaged; 2: low damaged; 3: medium damaged; 4: serious damaged; 5: complete killed
[14] = system: southern crabgrass; assay: Foliage treatment test for upland field (Test Example 3): southern crabgrass; format: in vivo; conditions: foliage treatment at 1.0-2.0 leaf stage of southern crabgrass, examined after 3 weeks
Procedure, shortened: (§3)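 Scored after 3 weeks at 25° C on a six-grade scale from 0 (under 20% inhibition) to 5 (100%) relative to untreated plants. Foliar spray of diluted wettable powder at 15 L/are, applied when southern crabgrass reached the 1.0-2.0 leaf stage.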

[15] = system: common lambsquaters; assay: Foliage treatment test for upland field (Test Example 3): common lambsquaters; format: in vivo; conditions: foliage treatment at 1.0-2.0 leaf stage of southern crabgrass, examined after 3 weeks
Procedure, shortened: as §3

[16] = system: slender amaranth; assay: Foliage treatment test for upland field (Test Example 3): slender amaranth; format: in vivo; conditions: foliage treatment at 1.0-2.0 leaf stage of southern crabgrass, examined after 3 weeks
Procedure, shortened: as §3

[17] = system: common purslane; assay: Foliage treatment test for upland field (Test Example 3): common purslane; format: in vivo; conditions: foliage treatment at 1.0-2.0 leaf stage of southern crabgrass, examined after 3 weeks
Procedure, shortened: as §3

[18] = system: velvetleaf; assay: Foliage treatment test for upland field (Test Example 3): velvetleaf; format: in vivo; conditions: foliage treatment at 1.0-2.0 leaf stage of southern crabgrass, examined after 3 weeks
Procedure, shortened: as §3

[19] = system: wheat; assay: Foliage treatment test for upland field (Test Example 3): phytotoxicity to wheat; format: in vivo; conditions: foliage treatment at 1.0-2.0 leaf stage of southern crabgrass, examined after 3 weeks; further: key: 0: normal growth; 1: little damaged; 2: low damaged; 3: medium damaged; 4: serious damaged; 5: complete killed
Procedure, shortened: (§4)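 Crops sown in compost-mixed soil pots, kept in a glasshouse at 25° C. average. Effect scored after 3 weeks versus untreated control on a 0–5 scale (0 normal growth, 5 complete kill).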

[20] = system: corn; assay: Foliage treatment test for upland field (Test Example 3): phytotoxicity to corn; format: in vivo; conditions: foliage treatment at 1.0-2.0 leaf stage of southern crabgrass, examined after 3 weeks
Procedure, shortened: as §4

[21] = system: soybean; assay: Foliage treatment test for upland field (Test Example 3): phytotoxicity to soybean; format: in vivo; conditions: foliage treatment at 1.0-2.0 leaf stage of southern crabgrass, examined after 3 weeks
Procedure, shortened: as §4

FC(F)(F)COC/C(=C\c1cccc(C(F)(F)F)c1)c1nc2cc(C(F)(F)F)ccc2o1 [Compound 85, (E)-2-(5-trifluoromethylbenzoxazol-2-yl)-1-(3-trifluoromethylphenyl)-3-(2,2,2-trifluoroethoxy)propene]
86 to 89 °C: melting point
0: Phytotoxicity Rice plant ([5]; dose 2.5 g ai/a) | Phytotoxicity Rice plant ([5]; dose 5 g ai/a) | Phytotoxicity wheat ([11]; dose 2.5 g ai/a) | Phytotoxicity wheat ([11]; dose 5 g ai/a) | Phytotoxicity corn ([12]; dose 2.5 g ai/a) | Phytotoxicity corn ([12]; dose 5 g ai/a) | Phytotoxicity soybean ([13]; dose 2.5 g ai/a) | Phytotoxicity soybean ([13]; dose 5 g ai/a)
5 (100%): Herbicidal Effect Barnyard grass ([1]; dose 5 g ai/a) | Herbicidal Effect Monochoria vaginalis ([2]; dose 2.5 g ai/a) | Herbicidal Effect Monochoria vaginalis ([2]; dose 5 g ai/a) | Herbicidal Effect Japanese bulrush ([3]; dose 5 g ai/a) | Herbicidal Effect southern crabgrass ([6]; dose 2.5 g ai/a) | Herbicidal Effect southern crabgrass ([6]; dose 5 g ai/a) | Herbicidal Effect common lambsquaters ([7]; dose 2.5 g ai/a) | Herbicidal Effect common lambsquaters ([7]; dose 5 g ai/a) | Herbicidal Effect slender amaranth ([8]; dose 2.5 g ai/a) | Herbicidal Effect slender amaranth ([8]; dose 5 g ai/a) | Herbicidal Effect common purslane ([9]; dose 2.5 g ai/a) | Herbicidal Effect common purslane ([9]; dose 5 g ai/a) | Herbicidal Effect velvetleaf ([10]; dose 2.5 g ai/a) | Herbicidal Effect velvetleaf ([10]; dose 5 g ai/a) | Herbicidal Effect southern crabgrass ([14]; dose 2.5 g ai/a) | Herbicidal Effect southern crabgrass ([14]; dose 5 g ai/a) | Herbicidal Effect Common lambsquatters ([15]; dose 2.5 g ai/a) | Herbicidal Effect Common lambsquatters ([15]; dose 5 g ai/a) | Herbicidal Effect slender amaranth ([16]; dose 2.5 g ai/a) | Herbicidal Effect slender amaranth ([16]; dose 5 g ai/a) | Herbicidal Effect common purslane ([17]; dose 2.5 g ai/a) | Herbicidal Effect common purslane ([17]; dose 5 g ai/a) | Herbicidal Effect velvetleaf ([18]; dose 2.5 g ai/a) | Herbicidal Effect velvetleaf ([18]; dose 5 g ai/a)
3 (60%-less than 80%): Herbicidal Effect Flat sedge ([4]; dose 2.5 g ai/a)
1: Phytotoxicity wheat ([19]; dose 2.5 g ai/a) | Phytotoxicity wheat ([19]; dose 5 g ai/a) | Phytotoxicity corn ([20]; dose 2.5 g ai/a) | Phytotoxicity corn ([20]; dose 5 g ai/a)
2: Phytotoxicity soybean ([21]; dose 2.5 g ai/a) | Phytotoxicity soybean ([21]; dose 5 g ai/a)
4 (80%-less than 100%): Herbicidal Effect Barnyard grass ([1]; dose 2.5 g ai/a) | Herbicidal Effect Japanese bulrush ([3]; dose 2.5 g ai/a) | Herbicidal Effect Flat sedge ([4]; dose 5 g ai/a)
